Source: PMC8230625 (International Journal of Molecular Sciences, 2021)
Values joined by “and” are separate entries in the source; they are usually repeats but may differ in a detail not shown here. Equal entries are not always repeated. Where two headings read alike, the source gives them in different places.

Experiments:
in vitro = details: human
Description: (§1) The HeLa cervical cancer adherent cell line (ATCC: CCL-2) was applied for the evaluation of individual and combined effects of mycotoxins on cell viability. The cells were cultured in DMEM (high glucose, 4500 mg/L) with 10% FBS, penicillin (100 U/mL), and streptomycin (100 μg/mL) in sterile plastic cell culture flasks (75 cm^2; 5% CO2, 37 °C). The cells were trypsinized and plated onto 96-well sterile plastic plates. Stock solutions (each 5000 μM) of ZEN, ZELs, ZAN, and ZALs used in cell experiments were prepared in 96 v/v% ethanol (spectroscopic grade; VWR, Debrecen, Hungary). Stock solutions of AOH (5000 μM or 40 mM) were prepared in spectroscopic grade dimethyl sulfoxide (DMSO; Fluka, Morris Plains, NJ, USA). Mycotoxin stock solutions were stored at −20 °C.
(§2) HeLa cells were treated with ZEN, α/β-ZEL, ZAN, α/β-ZAL, and AOH (0–250 μM) for 24 h. […] The cell viability was evaluated based on the ATP levels/well employing a previously described method without modifications.
(§3) Combined effects were evaluated based on combination indices (CI) determined using the CompuSyn software (ComboSyn Inc., Paramus, NJ, USA) by the median-effect equation of the mass-action law:(1) logfa/fu=m×log(D)−m×log(Dm), where fa and fu are the affected and unaffected fractions of the system, respectively; D represents the dose, Dm denotes the dose necessary for the production of median effect, while m is the sigmoidicity coefficient (m > 1 sigmoidal, m = 1 hyperbolic, m < 1 flat sigmoidal).
(§4) The combined effects of mycotoxins were determined by the CI values calculated based on the following equation [68]:(2) CI=(D)1/(Dx)1+(D)2/(Dx)2, where (Dx)1 and (Dx)2 are the individual doses necessary for the production of x% effect, while (D)1 and (D)2 are the doses of the two compounds that combined evoke the same effect as (Dx)1 alone or (Dx)2 alone, i.e., the targeted x% effect.

HeLa cells = experiment: in vitro; details: for Concentration at (and above) which statistically significant (p < 0.01) decrease in cell viability was noticed: 24 h incubation, single compound; for IC50: Homo sapiens, read-out: Dm (IC50), viability of HeLa cells (ATP/well); for Effect of the non-toxic (subtoxic) concentration of the compound on ATP levels of ZEN-exposed cells: co-exposure with toxic concentration of ZEN (20 μM), compared to ZEN-exposed cells, Figure 3A
Description: as §1, §2, §3, §4

[1] = target: T1, hERα (Saccharomyces cerevisiae BLYES strain) (Homo sapiens, UniProt P03372); experiment: cell-based; type: cell-based; details: for CI Value (combination index) / Combined Estrogenic Effect / Combined Estrogenic Effect (grade symbol): + 6.28 × 10^−2 µM ZEN; for Combined estrogenic effect in Figure 5B: + 62.8 ×10^-3 μM ZEN; for Effect of subtoxic (non-estrogenic) concentration of the compound on the estrogenic effect of ZEN: co-treatment with ZEN (approx. 20% estrogenicity), α-ZEL 1.56 × 10^−3 µM, ZAN 6.24 × 10^−3 µM, AOH up to 48.4 µM, Figure 5A; for Concentration at (and above) which statistically significant (p < 0.01) estrogenic effect was observed: single compound
T1 construct: expressed in transfected cells; host or cells: Saccharomyces cerevisiae BLYES strain (hERα gene integrated in the chromosome)
T1 sequence (P03372 whole entry): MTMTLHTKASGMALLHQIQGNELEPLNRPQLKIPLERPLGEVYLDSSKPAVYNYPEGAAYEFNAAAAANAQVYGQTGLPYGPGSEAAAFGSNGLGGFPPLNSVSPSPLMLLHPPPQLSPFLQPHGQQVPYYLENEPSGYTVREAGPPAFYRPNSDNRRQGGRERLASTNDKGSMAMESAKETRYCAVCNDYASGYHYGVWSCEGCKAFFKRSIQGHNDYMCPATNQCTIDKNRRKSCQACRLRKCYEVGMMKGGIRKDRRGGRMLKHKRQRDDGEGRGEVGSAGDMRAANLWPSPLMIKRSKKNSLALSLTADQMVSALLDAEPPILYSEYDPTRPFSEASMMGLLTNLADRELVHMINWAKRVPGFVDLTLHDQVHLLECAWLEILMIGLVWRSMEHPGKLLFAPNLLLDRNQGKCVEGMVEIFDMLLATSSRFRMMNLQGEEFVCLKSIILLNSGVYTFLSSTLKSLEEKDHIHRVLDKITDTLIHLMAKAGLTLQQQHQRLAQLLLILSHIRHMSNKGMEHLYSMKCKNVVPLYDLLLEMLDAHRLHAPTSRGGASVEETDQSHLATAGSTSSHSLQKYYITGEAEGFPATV
Excerpt: The Saccharomyces cerevisiae BLYES strain was applied to examine the estrogenic activity of the compounds tested. This bioluminescent yeast bioreporter harbors the hERα gene on its chromosome, and it has two plasmids with genes responsible for bioluminescence. The pUTK404 plasmid contains luxC, -D, and -E genes from Photorhabdus luminescens and flavin oxidoreductase gene (frp) from Vibrio harveyi. The pUTK407 plasmid contains tandem estrogen responsive elements (EREs) that initiate the transcription of luxA and luxB genes after binding the dimer formed by estrogen receptor—ligand complexes.
S. cerevisiae BLYES strain was grown in 30 mL of yeast growth medium (YMM leu-, ura-) for 18–20 h at 30 °C.
Stock solutions of the compounds tested were prepared in methanol and stored at −20 °C. Estrogen assays were carried out on 96-well (PS, F-bottom) microplates (Greiner Bio-One Hungary Ltd., Mosonmagyaróvár, Hungary). In single compound tests, stock solutions of the compounds were serially diluted with methanol; whereas, in co-exposure experiments, a 20-µL mixture of the solutions was placed into the wells of the microplates. After the evaporation of methanol, yeast culture (200 µL; OD600 of 1.000 ± 0.050) were pipetted into each well. E2 was applied as a positive control, while wells containing only yeast cells and yeast cells with methanol served as negative and solvent controls, respectively. Bioluminescence (cps, counts per second) was measured after 5-h incubation (30 °C) with a VictorX Multilabel Plate Reader (Perkin Elmer Inc., Waltham, MA, USA).
as §3, §4
Zero percent was defined in each measurement as the mean of the methanol control values, and 100% was defined as the mean of all plateau values of single compounds’ concentration—response curves.

[2] = HeLa, 24 h, 10 µM (lower toxic concentration) of the compound + 20 µM ZEN
[3] = HeLa, 24 h, 10 µM of the compound + 20 µM ZEN
[4] = HeLa, 24 h, 10 µM of the compound + 20 µM ZEN, CompuSyn
[5] = HeLa, 24 h, 30 µM (higher toxic concentration) of the compound + 20 µM ZEN
[6] = HeLa, 24 h, 30 µM of the compound + 20 µM ZEN
[7] = HeLa, 24 h, 30 µM of the compound + 20 µM ZEN, CompuSyn
[8] = BLYES, higher concentration (µM): α-ZEL 1.25 × 10^−2, β-ZEL 2.43, ZAN 4.99 × 10^−2, α-ZAL 2.48 × 10^−2, β-ZAL 2.48 × 10^−1, GEN 1.48
[9] = BLYES, higher estrogenic concentration of the compound (as E22)
[10] = BLYES, lower concentration (µM): α-ZEL 6.24 × 10^−3, β-ZEL 1.22, ZAN 2.50 × 10^−2, α-ZAL 1.24 × 10^−2, β-ZAL 1.24 × 10^−1, GEN 7.4 × 10^−1
[11] = BLYES, lower estrogenic concentration of the compound (as E21)
[12] = BLYES, higher estrogenic concentration of the compound (as E20)
[13] = BLYES, lower estrogenic concentration of the compound (as E19)

Structure (SMILES) | cytotoxicity at 10 µM (in vitro) [%] | cytotoxicity at 30 µM (in vitro) [%] | Combined cytotoxic effect in Figure 3B (HeLa cells; [2]) | Combined Cytotoxic Effect (HeLa cells; [3]) | Combined Cytotoxic Effect (grade symbol) (HeLa cells; [3]) | Combined cytotoxic effect in Figure 3B (HeLa cells; [5]) | Combined Cytotoxic Effect (HeLa cells; [6]) | Combined Cytotoxic Effect (grade symbol) (HeLa cells; [6]) | Concentration at (and above) which statistically significant (p < 0.01) decrease in cell viability was noticed (HeLa cells; HeLa) [µM] | IC50 (HeLa cells; HeLa, 24 h) [µM] | EC50 [1] [µM] | CI Value (combination index) [1, 8] | Combined Estrogenic Effect [1, 9] | Combined Estrogenic Effect (grade symbol) [1, 9] | CI Value (combination index) [1, 10] | Combined Estrogenic Effect [1, 11] | Combined Estrogenic Effect (grade symbol) [1, 11] | Combined estrogenic effect in Figure 5B [1, 12] | Combined estrogenic effect in Figure 5B [1, 13] | Concentration at (and above) which statistically significant (p < 0.01) estrogenic effect was observed ([1]; BLYES) [µM] | further results
C[C@H]1CCCC(=O)CCCCCc2cc(O)cc(O)c2C(=O)O1 [ZAN, zearalanone] | 13.2 | 34.8 | Syn and synergism | Synergism (CI < 0.8: synergism) | ++ (CI < 0.60: ++) | Syn and synergism | Synergism (CI < 0.8: synergism) | + (0.60 < CI < 0.80: +) | 10 | 61.5 | 0.048 | 0.62 | Synergism (CI < 0.8: synergism) | + (0.60 < CI < 0.80: +) | 0.58 | Synergism (CI < 0.8: synergism) | ++ (CI < 0.60: ++) | synergism | synergism | 0.012 | CI Value (combination index) (HeLa cells; [4]): 0.55; CI Value (combination index) (HeLa cells; [7]): 0.77; Effect of subtoxic (non-estrogenic) concentration of the compound on the estrogenic effect of ZEN ([1]; BLYES): statistically significant (p < 0.05) increases
C[C@H]1CCCC(=O)CCC/C=C/c2cc(O)cc(O)c2C(=O)O1 [ZEN, zearalenone] | – | – | – | – | – | – | – | – | 10 | 56.4 | 0.46 | – | – | – | – | – | – | – | – | 0.031 | cytotoxicity at 24 h, 20 µM (in vitro; Decrease in cellular ATP levels (% of control), individual effect, HeLa, 24 h, single compound at 20 μM): 30.1%; cytotoxicity (HeLa cells; read-out: Decrease in cellular ATP levels (% of control), individual effect, HeLa, 24 h, single compound at 20 μM, 20 µM): ~30%; Estrogenic effect (% increase), individual effect ([1]; BLYES, ZEN alone at 62.8 ×10^-3 μM (6.3 × 10^−2 µM)): approximately 20%
C[C@H]1CCC[C@H](O)CCCCCc2cc(O)cc(O)c2C(=O)O1 [α-ZAL, α-zearalanol] | 1.9 | 19.3 | Syn | Synergism (CI < 0.8: synergism) | ++ (CI < 0.60: ++) | Syn | Synergism (CI < 0.8: synergism) | + (0.60 < CI < 0.80: +) | 20 | 63.8 | 0.019 | 1.16 | Additive effect (0.8 < CI < 1.2: additive effect) | ± (0.80 < CI < 1.20: ±) | 0.97 | Additive effect (0.8 < CI < 1.2: additive effect) | ± (0.80 < CI < 1.20: ±) | additive combined effects | additive combined effects | 0.024 | CI Value (combination index) (HeLa cells): 0.78 and 0.52; Effect of the non-toxic (subtoxic) concentration of the compound on ATP levels of ZEN-exposed cells (HeLa cells; HeLa, 24 h): statistically significant (p < 0.01) decreases in ATP levels
C[C@H]1CCC[C@H](O)CCC/C=C/c2cc(O)cc(O)c2C(=O)O1 [α-ZEL, α-zearalenol] | 5.5 | 38.4 | Syn | Synergism (CI < 0.8: synergism) | ++ (CI < 0.60: ++) | Add | Additive effect (0.8 < CI < 1.2: additive effect) | ± (0.80 < CI < 1.20: ±) | 20 | 44.6 | 0.019 | 0.41 | Synergism (CI < 0.8: synergism) | ++ (CI < 0.60: ++) | 0.37 | Synergism (CI < 0.8: synergism) | ++ (CI < 0.60: ++) | synergism | synergism | – | CI Value (combination index) (HeLa cells; [4]): 0.57; CI Value (combination index) (HeLa cells; [7]): 0.81; Effect of subtoxic (non-estrogenic) concentration of the compound on the estrogenic effect of ZEN ([1]; BLYES): statistically significant (p < 0.05) increases
C[C@H]1CCC[C@@H](O)CCCCCc2cc(O)cc(O)c2C(=O)O1 [β-ZAL, β-zearalanol] | 9.6 | 28 | Syn | Synergism (CI < 0.8: synergism) | ++ (CI < 0.60: ++) | Syn | Synergism (CI < 0.8: synergism) | + (0.60 < CI < 0.80: +) | 10 | 64.5 | 0.18 | 1.56 | Antagonism (CI > 1.2: antagonism) | -- (CI > 1.40: --) | 1.19 | Additive effect (0.8 < CI < 1.2: additive effect) | ± (0.80 < CI < 1.20: ±) | antagonism | additive effect | 0.03 | CI Value (combination index) (HeLa cells): 0.51 and 0.72; Effect of the non-toxic (subtoxic) concentration of the compound on ATP levels of ZEN-exposed cells (HeLa cells; HeLa, 24 h): statistically significant (p < 0.01) decreases in ATP levels
